Source: publication PMC12207590, “Substrate Specificity of the Organic Cation Transporters MATE1 and MATE2K and Functional Overlap with OCT1 and OCT2” (Journal of Medicinal Chemistry, 2025)
Like-named read-outs stand apart in the source and are kept apart here.

Experiments:
[1] = molecular target: T1, MATE1 (Homo sapiens, UniProt Q96FL8); assay: Uptake ratio in MATE1-overexpressing HEK293 cells vs empty vector (2.5 μM, 1 min, HPLC-MS/MS); type: cell-based
T1 sequence (Q96FL8 1-570): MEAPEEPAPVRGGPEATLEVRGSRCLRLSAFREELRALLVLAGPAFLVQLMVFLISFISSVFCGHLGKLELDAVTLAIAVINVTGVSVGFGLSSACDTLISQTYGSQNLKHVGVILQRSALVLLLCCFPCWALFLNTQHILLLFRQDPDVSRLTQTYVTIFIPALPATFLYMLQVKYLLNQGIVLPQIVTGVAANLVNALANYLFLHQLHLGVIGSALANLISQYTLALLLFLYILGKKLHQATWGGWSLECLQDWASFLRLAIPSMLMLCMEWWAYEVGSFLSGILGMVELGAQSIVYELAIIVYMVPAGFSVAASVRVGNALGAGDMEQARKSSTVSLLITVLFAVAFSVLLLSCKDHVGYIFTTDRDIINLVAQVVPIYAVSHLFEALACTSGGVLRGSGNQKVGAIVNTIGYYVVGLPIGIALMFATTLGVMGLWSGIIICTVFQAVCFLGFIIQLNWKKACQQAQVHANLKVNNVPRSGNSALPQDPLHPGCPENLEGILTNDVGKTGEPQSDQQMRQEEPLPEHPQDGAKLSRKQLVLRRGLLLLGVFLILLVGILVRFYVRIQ

[2] = molecular target: MATE2K (Homo sapiens, UniProt Q86VL8); assay: Uptake ratio in MATE2K-overexpressing HEK293 cells vs empty vector (2.5 μM, 1 min, HPLC-MS/MS); type: cell-based
[3] = fold uptake over empty vector, 2.5 μM, 1 min
[4] = mean ratio of uptake in MATE1-overexpressing HEK293 cells vs empty vector, 2.5 μM, 1 min
[5] = mean ratio of uptake in MATE2K-overexpressing HEK293 cells vs empty vector, 2.5 μM, 1 min

Chain of MATE2K (Q86VL8 1-566 isoform Q86VL8-3): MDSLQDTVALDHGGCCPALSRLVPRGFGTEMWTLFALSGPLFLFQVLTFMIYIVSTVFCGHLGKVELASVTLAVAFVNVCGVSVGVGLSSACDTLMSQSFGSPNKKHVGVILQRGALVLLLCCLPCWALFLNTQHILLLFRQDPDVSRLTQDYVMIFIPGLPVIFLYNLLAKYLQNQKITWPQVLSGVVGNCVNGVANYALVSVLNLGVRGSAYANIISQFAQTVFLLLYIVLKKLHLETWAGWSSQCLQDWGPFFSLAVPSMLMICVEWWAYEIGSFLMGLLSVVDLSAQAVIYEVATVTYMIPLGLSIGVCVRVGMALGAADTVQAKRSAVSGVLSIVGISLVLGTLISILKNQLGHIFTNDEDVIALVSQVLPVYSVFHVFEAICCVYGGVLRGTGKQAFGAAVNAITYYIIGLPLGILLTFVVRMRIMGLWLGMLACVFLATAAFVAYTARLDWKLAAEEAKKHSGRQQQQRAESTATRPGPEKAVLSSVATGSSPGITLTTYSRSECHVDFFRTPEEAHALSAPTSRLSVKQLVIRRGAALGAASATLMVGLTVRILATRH

In the case of `CC(N)[C@H](O)c1ccc(O)c(O)c1` (stereo partly drawn) [Alpha-methylnorepinephrine (-), Alpha-methylnorepinephrine], the “MATE1 (uptake ratio)” value [1] is reported as 1.85, the MATE1 ratio [1] is reported as 1.85 and the “MATE2 (uptake ratio)” value [2] is reported as 0.72. For the same compound, the MATE2K ratio [2] was 0.72.
`NC12CC3CC(CC(C3)C1)C2` [Amantadine] was tested, and the “MATE1 (uptake ratio)” value [1] was 1.42, the MATE1 ratio [1] was 1.42 and the “MATE2 (uptake ratio)” value [2] was 1.48. For the same compound, the MATE2K ratio [2] was 1.48.
For `Nc1c(Br)cc(Br)cc1CN[C@H]1CC[C@H](O)CC1` [Ambroxol], the MATE1 ratio [1, 3] was 1.00, the “MATE1 (uptake ratio)” value [1, 4] was 1 and the MATE2K ratio [2, 3] was 1.32. For the same compound, the “MATE2 (uptake ratio)” value [2, 5] was 1.32.
In the case of `CCN1CCCC1CNC(=O)c1cc(S(=O)(=O)CC)c(N)cc1OC` [Amisulpride (R), Amisulpride], the MATE1 ratio [1, 3] is reported as 8.46, the “MATE1 (uptake ratio)” value [1, 4] is reported as 8.46 and the MATE2K ratio [2, 3] is reported as 7.40. The “MATE2 (uptake ratio)” value [2, 5] was 7.4.
`CCN1CCCC1CNC(=O)c1cc(S(=O)(=O)CC)c(N)cc1OC` [Amisulpride (S), Amisulpride] was tested, and the MATE1 ratio [1, 3] was 13.70, the “MATE1 (uptake ratio)” value [1, 4] was 13.7 and the MATE2K ratio [2, 3] was 7.93. For the same compound, the “MATE2 (uptake ratio)” value [2, 5] was 7.93.
With `Clc1ccc2c(c1)C(N1CCNCC1)=Nc1ccccc1O2` [Amoxapine] the MATE1 ratio [1, 3] was 1.32, the “MATE1 (uptake ratio)” value [1, 4] was 1.32 and the MATE2K ratio [2, 3] was 1.33. For the same compound, the “MATE2 (uptake ratio)” value [2, 5] was 1.33.
For `CC1(C)S[C@@H]2[C@H](NC(=O)[C@H](N)c3ccc(O)cc3)C(=O)N2[C@H]1C(=O)O` [Amoxicillin], the MATE1 ratio [1, 3] was 1.82, the “MATE1 (uptake ratio)” value [1, 4] was 1.82 and the MATE2K ratio [2, 3] was 0.67. The “MATE2 (uptake ratio)” value [2, 5] was 0.67.
`COc1ccc(-n2nc(C(N)=O)c3c2C(=O)N(c2ccc(N4CCCCC4=O)cc2)CC3)cc1` [Apixaban] was tested, and the MATE1 ratio [1, 3] was 1.24, the “MATE1 (uptake ratio)” value [1, 4] was 1.24 and the MATE2K ratio [2, 3] was 1.15. For the same compound, the “MATE2 (uptake ratio)” value [2, 5] was 1.15.
For `CN1CCc2cccc3c2[C@H]1Cc1ccc(O)c(O)c1-3` [Apomorphine], the MATE1 ratio [1, 3] was 1.05, the “MATE1 (uptake ratio)” value [1, 4] was 1.05 and the MATE2K ratio [2, 3] was 1.02. The “MATE2 (uptake ratio)” value [2, 5] was 1.02.
For `N=C(N)NCCCCNC(=N)N` [Arcaine, 1,4-diguanidinobutane], the MATE1 ratio [1, 3] was 40.20, the MATE1 ratio ([1]; fold uptake over empty vector, 2.5 μM, 1 min, listed as arcaine) was 40 and the “MATE1 (uptake ratio)” value [1, 4] was 40.2. For the same compound, the MATE2K ratio [2, 3] was 16.29 and the “MATE2 (uptake ratio)” value [2, 5] was 16.29.
For `CNCC[C@@H](Oc1ccccc1C)c1ccccc1` [Atomoxetine (S), Atomoxetine], the MATE1 ratio [1, 3] was 1.16, the “MATE1 (uptake ratio)” value [1, 4] was 1.16 and the MATE2K ratio [2, 3] was 1.03. For the same compound, the “MATE2 (uptake ratio)” value [2, 5] was 1.03.
`COc1ccc(CC2c3cc(OC)c(OC)cc3CC[N+]2(C)CCC(=O)OCCCCCOC(=O)CC[N+]2(C)CCc3cc(OC)c(OC)cc3C2Cc2ccc(OC)c(OC)c2)cc1OC` (centres unmarked) [Atracurium] was tested, and the MATE1 ratio [1, 3] was 1.13, the “MATE1 (uptake ratio)” value [1, 4] was 1.13 and the MATE2K ratio [2, 3] was 1.10. The “MATE2 (uptake ratio)” value [2, 5] was 1.1.
For `NCC(CC(=O)O)c1ccc(Cl)cc1` (centres unmarked) [Baclofen], the MATE1 ratio [1, 3] was 1.45, the “MATE1 (uptake ratio)” value [1, 4] was 1.45 and the MATE2K ratio [2, 3] was 1.05. The “MATE2 (uptake ratio)” value [2, 5] was 1.05.
With `CN(C)C(=O)Oc1cc(OC(=O)N(C)C)cc(C(O)CNC(C)(C)C)c1` (centres unmarked) [Bambuterol] the MATE1 ratio [1, 3] was 1.52, the “MATE1 (uptake ratio)” value [1, 4] was 1.52 and the MATE2K ratio [2, 3] was 1.21. For the same compound, the “MATE2 (uptake ratio)” value [2, 5] was 1.21.
With `CCS(=O)(=O)N1CC(CC#N)(n2cc(-c3ncnc4[nH]ccc34)cn2)C1` [Baricitinib] the “MATE1 ratio in this study” value ([1]; Table S1, 2.5 μM, 1 min) was 0.82, the MATE1 ratio [1, 3] was 0.82 and the “MATE1 (uptake ratio)” value [1, 4] was 0.82. For the same compound, the “MATE2K ratio in this study” value ([2]; Table S1, 2.5 μM, 1 min) was 1.04, the MATE2K ratio [2, 3] was 1.04 and the “MATE2 (uptake ratio)” value [2, 5] was 1.04.
For `CC(=O)c1cc2cccc(OCC(O)CNC(C)C)c2o1` (centres unmarked) [Befunolol], the MATE1 ratio [1, 3] was 1.39, the “MATE1 (uptake ratio)” value [1, 4] was 1.39 and the MATE2K ratio [2, 3] was 1.38. For the same compound, the “MATE2 (uptake ratio)” value [2, 5] was 1.38.
`CC[N+](CC)(CC)Cc1ccccc1` [Benzyltriethylammonium] was tested, and the MATE1 ratio [1, 3] was 25.63, the “MATE1 (uptake ratio)” value [1, 4] was 25.63 and the MATE2K ratio [2, 3] was 4.52. The “MATE2 (uptake ratio)” value [2, 5] was 4.52.
`CC(C)NCC(O)COc1ccc(CCOCC2CC2)cc1` (centres unmarked) [Betaxolol] was tested, and the MATE1 ratio [1, 3] was 1.37, the “MATE1 (uptake ratio)” value [1, 4] was 1.37 and the MATE2K ratio [2, 3] was 1.43. The “MATE2 (uptake ratio)” value [2, 5] was 1.43.
In the case of `CC(C[N+](C)(C)C)OC(N)=O` (centres unmarked) [Bethanechol], the MATE1 ratio [1, 3] is reported as 0.23, the “MATE1 (uptake ratio)” value [1, 4] is reported as 0.23 and the MATE2K ratio [2, 3] is reported as 0.97. The “MATE2 (uptake ratio)” value [2, 5] was 0.97.
For `Cc1ccc(C23CNCC2C3)cc1` (centres unmarked) [Bicifadine], the MATE1 ratio [1, 3] was 1.17, the “MATE1 (uptake ratio)” value [1, 4] was 1.17 and the MATE2K ratio [2, 3] was 1.31. The “MATE2 (uptake ratio)” value [2, 5] was 1.31.
